For this assay, the target named is T1, NS3 (West Nile virus, UniProt K4FQI5).
T1 sequence (K4FQI5 whole entry): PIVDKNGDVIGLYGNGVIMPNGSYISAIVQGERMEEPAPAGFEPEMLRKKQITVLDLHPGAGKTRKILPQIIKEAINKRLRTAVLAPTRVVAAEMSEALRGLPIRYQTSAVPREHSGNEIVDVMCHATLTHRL
Briefly: Functional biochemical assay to identify treatments for viral infectious disease that targets West Nile NS2B-NS3 protease. Utilizing a direct enzyme activity measurement method, reading the fluorescence intensity is used to characterize the relative potency of inhibitors as IC50. Further details: species or system NY-99.

Several values for one entry are separate records, joined by “and”; a condition that tells them apart may be missing. Identical values can stand only once. Some results are limits rather than exact numbers.

The IC50 is the concentration needed to halve the response being measured. The low end stands for higher potency, the high end for lower potency. In turn, `O=C(Nc1ccc2c(c1)CNC2)c1cc(Cl)cc2nn(C3COC3)cc12` had an IC50 of 42.5 µM.

For the compound `O=C(Nc1ccc2c(c1)CN[C@H]2CO)c1cc(F)cc2[nH]ncc12`, it took 4.53 µM to reach half-maximal inhibition (IC50). For `NCc1cccc([C@H]2C[C@@H]2c2cc(Cl)cc(NC(=O)OCc3ccccc3)c2)c1`, the IC50 is 18.8 µM. Take `O=C(Nc1ccc2c(c1)CNC2)c1cc(Cl)cc2[nH]ncc12`: half-maximal inhibition (IC50) was put at 3.09 µM.

`COC[C@]1(c2nc3c(C(=O)Nc4ccc5c(c4)CNC5)cc(F)cc3[nH]2)CCOC1` registered an IC50 of 20.5 µM. Compound `COc1cc(C(=O)Nc2ccc3c(c2)CNC3)cc2ccoc12` registered an IC50 of 48.9 µM. With `O=C(Nc1cc(Br)c2c(c1)CNC2)c1cc(F)cc2[nH]ncc12` the figure was 0.915 µM and 0.957 µM; with `O=C(O)c1cc(Cl)ccc1NS(=O)(=O)c1ccc(-c2ccc(F)cc2)cc1`, 29.5 µM; with `O=C(Nc1ccc2c(c1)CNC2)c1cc(Cl)cc2[nH]c(-c3cnc(C4CC4)o3)nc12`, 22.9 µM.

The compound `COC(=O)CNC(=O)[C@H](Nc1ccc2c(c1)CNC2)c1cc(Cl)cc(C2CC2)c1` registered an IC50 of 0.897 µM.

Turning to `NCc1cccc(NC(=O)[C@H](NC(=O)OCc2ccccc2)c2ccc(Br)c(Cl)c2)c1`, half-maximal inhibition (IC50) was put at 6.57 µM. This IC50 is about 7.3-fold higher than that of the compound before.

`O=C1Cc2cc(C(=O)Nc3ccc4c(c3)CNC4)ccc2N1`: it took 16.7 µM to reach half-maximal inhibition (IC50). With `O=C(Nc1ccccc1)Oc1ccccc1` [PHENYL PHENYLCARBAMATE] the figure was over 100 µM; with `CO[C@H]1C[C@H](n2ncc3c(C(=O)Nc4ccc5c(c4)CNC5)cc(Cl)cc32)C1`, 2.55 µM; with `O=C(Nc1ccc2c(c1)CNC2)c1cc(Cl)cc(N2CCCC2=O)c1`, 24.8 µM.

Consider `Cc1ccc2cc(Cl)cc(C(=O)Nc3ccc4c(c3)CNC4)c2n1`, for which the half-inhibitory concentration (IC50) was over 99.5 µM. The compound `N#Cc1c[nH]c2ccc(C(=O)Nc3ccc4c(c3)CNC4)cc12` came in with an IC50 of 9.06 µM.

Regarding `O=C(Nc1ccc2c(c1)CNC2)c1cc(Cl)cc2cc[nH]c12`, the IC50 turned out to be 16.3 µM. Against the preceding compound, the IC50 is about 1.8-fold higher. `Cc1cc(CN)cc(NC(=O)c2cc(Cl)cc3[nH]ncc23)c1`: half-maximal inhibition (IC50) required 22.6 µM. With `N[C@H]1Cc2ccc(NC(=O)c3cc(Cl)cc4[nH]ncc34)cc2C1` the figure was 51.6 µM; with `O=C1c2c(O)ccc([N+](=O)[O-])c2C(=O)c2c([N+](=O)[O-])ccc(O)c21`, over 100 µM; with `CC(C)NC(=O)[C@H](Nc1ccc2c(c1)CNC2)c1cccc2cn[nH]c12`, 14.1 µM. Compound `O=C(Nc1ccc2c(c1)CNC2)c1cc(Cl)cc(C2CC2)c1` came in with a concentration for half-maximal inhibition (IC50) of 25.5 µM. With `O=C(NCC(F)F)[C@H](Nc1ccc2c(c1)CNC2)c1cc(F)cc2[nH]ncc12` the figure was 0.247 µM. On to `CNC(=O)[C@H](Nc1cccc(CN)c1)c1cc(Cl)cc(NC(=O)OCc2ccccc2)c1`, for which the IC50 came out at 1.88 µM. Compound `Cc1cccc(-c2nc3c(C(=O)Nc4ccc5c(c4)CNC5)cc(F)cc3[nH]2)c1` gave an IC50 of 26 µM. With `CS(=O)(=O)N1CC[C@]2(C1)C(=O)Nc1cccc(C(=O)Nc3ccc4c(c3)CNC4)c12` the figure was 6.28 µM. With `c1ccc2c(CN3CCC(c4cscn4)CC3)c[nH]c2c1` the figure was over 99.5 µM; with `O=C(Nc1ccc2c(c1)CNC2)c1cc(Cl)cc2c1cnn2C1CCC1`, 1.7 µM.

For the compound `O=C(NCc1ccc(F)cc1)[C@H](Nc1ccc2c(c1)CNC2)c1cc(Cl)cc2[nH]ncc12`, the IC50 stood at 1.08 µM. `O=C(Nc1ccc2c(c1)CNC2)c1cc(Cl)cc2c1cnn2C[C@H]1CCCO1` came in with a 50% inhibitory concentration (IC50) of 6.08 µM. With `O=C(Nc1cc2c(cc1Br)CNC2)c1cc(Cl)cc2[nH]ncc12`, half-maximal inhibition (IC50) was put at 2.73 µM. Take `O=C(O)CCCc1cc(NC(=O)c2cc(F)cc3[nH]ncc23)cc2c1CNC2`: the half-inhibitory concentration (IC50) came out at 1.51 µM. With `N#Cc1cccc(-c2nc3c(C(=O)Nc4ccc5c(c4)CNC5)cc(Cl)cc3[nH]2)c1` the figure was 7.57 µM; with `Cn1cc2c(C(=O)Nc3ccc4c(c3)CNC4)cc(F)cc2n1`, 7.38 µM. On to `N=C(N)NCCc1cccc(B(O)O)c1`, for which the 50% inhibitory concentration (IC50) is over 100 µM. `NCc1cccc(NC(=O)[C@H]2[C@H]3CCCCC[C@H]3[C@H]2NC(=O)OCc2ccccc2)c1` came in with an IC50 of 47.1 µM. In turn, `C=CC[C@H]1NCc2cc(NC(=O)c3cccc4c3CC(=O)N4)ccc21` came in with a half-maximal inhibitory concentration (IC50) of 8.03 µM. Compared with the last compound, the IC50 is about 5.9-fold lower.

`CCCC[C@H](NC(C)=O)C(=O)N[C@H](C(=O)NCc1ccc(C(N)=O)cc1)c1ccc(OCc2ccccc2)cc1` registered a half-maximal inhibitory concentration (IC50) of over 99.5 µM.

For the compound `O=C(Nc1ccc2c(c1)CNC2)c1cc(F)cc2c1CCNC2`, it took 1.36 µM to reach half-maximal inhibition (IC50). That is a single-digit micromolar value.

Take `O=C(NC1CCOCC1)[C@H](Nc1ccc2c(c1)CNC2)c1cc(Cl)cc2[nH]ncc12`: the concentration for half-maximal inhibition (IC50) is 0.115 µM. Compound `O=C(Nc1ccc2c(c1)CNC2)c1cc(Cl)cc2[nH]c(-c3cnccc3O)nc12` showed an IC50 of over 99.5 µM. `COC(=O)[C@H](C)n1cc2c(C(=O)Nc3ccc4c(c3)CNC4)cc(Cl)cc2n1` had an IC50 of 9.12 µM. Compound `O=C(Nc1ccc2c(c1)CNC2)c1cccc2[nH]c(=O)[nH]c12` gave an IC50 of 1.47 µM.

In the case of `O=C(Nc1ccc2c(c1)CNC2)c1cc(Br)cc2c1nc1n2CCCC1`, half-maximal inhibition (IC50) was put at 31.4 µM. In the case of `O=C(Nc1ccc2c(c1)CNC2)c1cc(Cl)cc2[nH]c(-c3ncnn3C3CC3)nc12`, 87.2 µM corresponded to half-maximal inhibition (IC50).

As to `CCSc1ccc(Cl)cc1C(=O)Nc1ccc2c(c1)CNC2`, the midpoint of inhibition, the IC50, lay at 81.6 µM.

For `Clc1cc(CNc2ccc3c(c2)CNC3)c2cn[nH]c2c1`, half-maximal inhibition (IC50) required 46.1 µM. On to `C=CC[C@H]1NCc2cc(NC(=O)c3cc(F)cc4[nH]ncc34)ccc21`, for which the IC50 worked out at 4.14 µM. Compound `COCCCNC(=O)[C@H](Nc1ccc2c(c1)CNC2)c1cc(Cl)cc(C2CC2)c1` gave a concentration for half-maximal inhibition (IC50) of 0.583 µM. With `O=C(NCC1CCOCC1)[C@H](Nc1ccc2c(c1)CNC2)c1cc(Cl)cc2[nH]ncc12` the figure was 2.28 µM; with `CCCCCC(=O)N[C@H](C(=O)N1CCCCC1)c1ccc(OCc2ccccc2)cc1`, over 99.5 µM; with `CC(C)(C)c1cc(Br)cc(C(=O)Nc2ccc3c(c2)CNC3)c1`, 88.2 µM. `NCc1cccc(NC(=O)[C@@H](NC(=O)OCc2ccccc2)c2ccc(OCc3ccccc3)cc2)c1` came in with a half-inhibitory concentration (IC50) of 6.97 µM. With `O=C(Nc1ccc2c(c1)CNC2)c1cc(F)cc2[nH]nnc12` the figure was 5.06 µM; with `O=C(Nc1ccc2c(c1)CNC2)c1cccc2sccc12`, 13.8 µM. Compound `O=C1CCc2c(cccc2C(=O)Nc2ccc3c(c2)CNC3)N1` displayed an IC50 of 10.8 µM. `C=C[C@H]1NCc2cc(NC(=O)c3cc(F)cc4[nH]ncc34)ccc21` displayed a 50% inhibitory concentration (IC50) of 3.07 µM.

With `O=C(Nc1ccc2c(c1)CNC2)c1cc(Cl)cc2c1CCC2`, the IC50 turned out to be 22.7 µM.

`Cc1cc(C(=O)Nc2ccc3c(c2)CNC3)c2cn[nH]c2c1`: the IC50 came to 9.64 µM. `OCC#C[C@H](Nc1ccc2c(c1)CNC2)c1cc(Cl)cc2[nH]ncc12` gave an IC50 of 22.4 µM. `O=C(Nc1ccc2c(c1)CNC2)c1cc(Cl)cc2c1cnn2C1CCOCC1` yielded a concentration for half-maximal inhibition (IC50) of 1.45 µM. This IC50 is about 15-fold lower than that of the compound before. On to `N=C(N)NCCc1ccccc1B(O)O`, for which the IC50 is over 100 µM. In turn, `COc1cc(Cc2c(-c3ccc(F)cc3)noc2C)nc(N2CCNCC2)n1` gave a half-maximal inhibitory concentration (IC50) of 67.3 µM. This lies in the double-digit micromolar range. In the case of `Cn1c(=O)[nH]c2c(C(=O)Nc3ccc4c(c3)CNC4)cc(Br)cc21`, the half-inhibitory concentration (IC50) was 14.4 µM. This IC50 lies about 4.7-fold lower than the previous one. The compound `O=C(Nc1ccc2c(c1)CNC2)c1cc(F)cc(C2=CCOCC2)c1` had an IC50 of 9.32 µM. `O=C(Nc1ccc2c(c1)CNC2)c1cc(Br)cc2[nH]c(=O)[nH]c12` gave an IC50 of 4.67 µM. Compared with the last compound, the IC50 is about 2-fold lower. `CC1=C(c2cc(NC(=O)c3cc(Cl)cc4[nH]ncc34)cc3c2CNC3)CCC1=O` returned an IC50 of 12.9 µM. `O=C(Nc1ccc2c(c1)CNC2)c1cc(F)cc2[nH]c(-c3cccc(F)c3)nc12` came in with an IC50 of 7.29 µM. This IC50 is about 1.8-fold lower than that of the compound before. In the case of `CN1Cc2ccc(NC(=O)c3cc(Cl)cc4[nH]ncc34)cc2C1`, the IC50 was over 99.5 µM. Turning to `N=C(N)NCCC[C@H](NC(=O)[C@H](Cc1ccc(CN)cc1)NC(=O)c1ccccc1)B(O)O`, the IC50 was 0.065 µM and 0.217 µM. In turn, `O=C(NCC(F)F)[C@H](Nc1ccc2c(c1)CNC2)c1cc(Cl)cc(Cl)c1Cl` showed an IC50 of 0.936 µM. `COc1cc(Cl)cc(C(=O)Nc2ccc3c(c2)CNC3)c1` returned a 50% inhibitory concentration (IC50) of 40.7 µM.

`CC(C)Cn1cc2c(C(=O)Nc3ccc4c(c3)CNC4)cc(Cl)cc2n1` had a half-maximal inhibitory concentration (IC50) of 14.7 µM. As to `Cn1cc(CCc2nc3c(C(=O)Nc4ccc5c(c4)CNC5)cc(Cl)cc3[nH]2)cn1`, inhibition was half-maximal at 44.5 µM (IC50). This IC50 lies about 3-fold higher than the previous one. On to `C=CC[C@H]1NCc2cc(N[C@H](C(=O)NC(C)C)c3cc(Cl)cc4[nH]ncc34)ccc21`, for which half-maximal inhibition (IC50) required 0.886 µM. Turning to `O=C(Nc1cnc2c(c1)CNCC2)c1cc(Cl)cc2[nH]ncc12`, the concentration for half-maximal inhibition (IC50) amounted to 26.5 µM. `COCn1ncc2c(C(=O)Nc3ccc4c(c3)CNC4)cc(Cl)cc21`: the half-inhibitory concentration (IC50) came to 3.73 µM. On to `CCOc1cccc(-c2ccc(S(=O)(=O)Nc3ccc(Cl)cc3C(=O)O)cc2)c1`, for which the midpoint of inhibition, the IC50, lay at 12.6 µM. Regarding `COc1ccc(S(=O)(=O)n2nc(OC(=O)c3cccc(-c4ccccc4Cl)c3)cc2N)cc1`, inhibition was half-maximal at 1.09 µM (IC50). On to `O=C(Nc1ccc2c(c1)CNC2)c1cc(F)cc2[nH]c(CCc3cccnc3)nc12`, for which the IC50 was found to be 3.31 µM.

As to `O=C(Nc1ccc2c(c1)CNC2)c1cc(Cl)cc2[nH]c(-c3cc(C4CC4)[nH]n3)nc12`, the IC50 worked out at 10.1 µM. Take `N#C[C@H](Nc1ccc2c(c1)CNC2)c1cc(Cl)cc2[nH]ncc12`: the half-maximal inhibitory concentration (IC50) worked out at 20 µM. With `N#Cc1csc2cc(C(=O)Nc3ccc4c(c3)CNC4)ccc12` the figure was 25.2 µM; with `c1ccc2sc(C3CCN(Cc4c[nH]c5ccccc45)CC3)nc2c1`, over 99.5 µM; with `NCc1cccc(NC(=O)c2cc(Cl)cc3c2cnn3CC2CC2)c1`, 68.2 µM. `Cn1cc2c(C(=O)Nc3ccc4c(c3)CNC4)cc(Cl)cc2n1` returned an IC50 of 15.1 µM. Against the preceding compound, the IC50 is about 4.5-fold lower. Take `O=C(Nc1cc2c(cc1Br)CNC2)c1cc(F)cc2[nH]ncc12`: it took 1.25 µM to reach half-maximal inhibition (IC50). In the case of `NCc1ccc(-c2ncc(OCC3CCNCC3)nc2-c2ccc(-c3ccoc3)cc2)cc1`, the midpoint of inhibition, the IC50, lay at 98.4 µM.

`Cn1cc2cc(Cl)cc(C(=O)Nc3ccc4c(c3)CNC4)c2n1` displayed a 50% inhibitory concentration (IC50) of over 24.9 µM.

For `CNC(=O)[C@H](Nc1cc(CN)cc(-c2nn[nH]n2)c1)c1cc(Cl)cc(C2CC2)c1`, the midpoint of inhibition, the IC50, lay at 1 µM.
